{
  "source": "patent US20230355584A1",
  "about": "“COMPOSITIONS AND METHODS FOR THE TREATMENT OF LIPID-RELATED DISORDERS” (Raziel Therapeutics Ltd., priority 2020, published 2023)",
  "format_in_all_cases": "in vivo",
  "key": {"[1]": {"test_system": "submental fat", "assay": "Phase 2a study: Subject Face-Q Questionnaire (subject satisfaction)", "conditions": "human subjects, Day 84 vs. baseline", "description": "28 patients with submental skin fold thickness greater than 1.5 cm as measured with calipers were divided into two cohorts, Cohort 1 (12 patients) and Cohort 2 (16 subjects). In Cohort 1, 8 subjects were injected with a 50 mg per mL solution of 5-(3,6-dibromo-9H-carbazol-9-yl)-N,N,N-trimethylpentan-1-aminium chloride (Compound 1A) in a vehicle comprising water, propylene glycol, and a surfactant, and 4 patients were injected with a placebo solution comprising vehicle only. […] Dosing is determined by cohort, as shown in Table 6 below: The maximum compound dose was 120 mg per patient (a total of 48 injections at 2.5 mg per injection) for Cohort 1 and 240 mg per patient (a total of 48 injections at 5 mg per injection) for Cohort 2. […] Cohort 2 subjects began treatment after Cohort 1 was evaluated for safety on day 28 post-injection. Subjects were also evaluated by a Face-Q Questionnaire, at baseline visit prior to injection and at posttreatment follow up visits on Days 28, 56, and 84. […] Submental fat volume was determined via magnetic resonance imaging (MRI) prior to injection and on day 84 post-injection. Treatment efficacy was evaluated via the Physician’s Global Assessment (PGS) questionnaire on days 28, 56, and 84 after injection, as described above. […]"}, "[2]": {"assay": "Phase 2a study: safety and tolerability (adverse events, vital signs)", "conditions": "human subjects", "description": "28 patients with submental skin fold thickness greater than 1.5 cm as measured with calipers were divided into two cohorts, Cohort 1 (12 patients) and Cohort 2 (16 subjects). In Cohort 1, 8 subjects were injected with a 50 mg per mL solution of 5-(3,6-dibromo-9H-carbazol-9-yl)-N,N,N-trimethylpentan-1-aminium chloride (Compound 1A) in a vehicle comprising water, propylene glycol, and a surfactant, and 4 patients were injected with a placebo solution comprising vehicle only. In Cohort 2, 6 patients were dosed with a placebo solution comprising vehicle only, and 10 patients were injected with a 50 mg per mL solution of 5-(3,6-dibromo-9H-carbazol-9-yl)-N,N,N-trimethylpentan-1-aminium chloride in a vehicle comprising water, propylene glycol, and a surfactant.\nThe maximum compound dose was 120 mg per patient (a total of 48 injections at 2.5 mg per injection) for Cohort 1 and 240 mg per patient (a total of 48 injections at 5 mg per injection) for Cohort 2. Injections were given at a 90° angle to the injected skin surface and spaced of a submental area-shaped grid in which the distance between rows was 1 cm and the distance between columns was also 1 cm. Cohort 2 subjects began treatment after Cohort 1 was evaluated for safety on day 28 post-injection."}, "[3]": {"test_system": "submental fat", "assay": "Phase 2a study: Physician Impression scale (physician's global assessment of submental fat)", "conditions": "human, 18 treated subjects (low and high dose), Day 84 vs baseline", "description": "28 patients with submental skin fold thickness greater than 1.5 cm as measured with calipers were divided into two cohorts, Cohort 1 (12 patients) and Cohort 2 (16 subjects). In Cohort 1, 8 subjects were injected with a 50 mg per mL solution of 5-(3,6-dibromo-9H-carbazol-9-yl)-N,N,N-trimethylpentan-1-aminium chloride (Compound 1A) in a vehicle comprising water, propylene glycol, and a surfactant, and 4 patients were injected with a placebo solution comprising vehicle only. […] Dosing is determined by cohort, as shown in Table 6 below: The maximum compound dose was 120 mg per patient (a total of 48 injections at 2.5 mg per injection) for Cohort 1 and 240 mg per patient (a total of 48 injections at 5 mg per injection) for Cohort 2. […] Cohort 2 subjects began treatment after Cohort 1 was evaluated for safety on day 28 post-injection. […] Submental fat volume was determined via magnetic resonance imaging (MRI) prior to injection and on day 84 post-injection. Treatment efficacy was evaluated via the Physician’s Global Assessment (PGS) questionnaire on days 28, 56, and 84 after injection, as described above. Patient satisfaction was assessed using the FACE-Q questionnaire prior to injection and on days 28, 56, and 84 after injection, as described above."}, "[4]": {"test_system": "submental fat", "assay": "Phase 2a study: submental fat volume by MRI", "conditions": "human subjects, day 84 vs prior to injection", "description": "28 patients with submental skin fold thickness greater than 1.5 cm as measured with calipers were divided into two cohorts, Cohort 1 (12 patients) and Cohort 2 (16 subjects). In Cohort 1, 8 subjects were injected with a 50 mg per mL solution of 5-(3,6-dibromo-9H-carbazol-9-yl)-N,N,N-trimethylpentan-1-aminium chloride (Compound 1A) in a vehicle comprising water, propylene glycol, and a surfactant, and 4 patients were injected with a placebo solution comprising vehicle only. In Cohort 2, 6 patients were dosed with a placebo solution comprising vehicle only, and 10 patients were injected with a 50 mg per mL solution of 5-(3,6-dibromo-9H-carbazol-9-yl)-N,N,N-trimethylpentan-1-aminium chloride in a vehicle comprising water, propylene glycol, and a surfactant. […] Cohort 2 subjects began treatment after Cohort 1 was evaluated for safety on day 28 post-injection. Submental fat volume was determined via magnetic resonance imaging (MRI) prior to injection and on day 84 post-injection. Treatment efficacy was evaluated via the Physician’s Global Assessment (PGS) questionnaire on days 28, 56, and 84 after injection, as described above. Patient satisfaction was assessed using the FACE-Q questionnaire prior to injection and on days 28, 56, and 84 after injection, as described above."}},
  "data": [
    {"smiles": "C[N+](C)(C)CCCCCn1c2ccc(Br)cc2c2cc(Br)ccc21.[Cl-]", "note": "[Compound 1A, 5-(3,6-dibromo-9H-carbazol-9-yl)-N,N,N-trimethylpentan-1-aminium chloride]", "values": [
      {"measurement": "Fold increase in mean subject satisfaction score (Face-Q)", "setting": "[1]; high dose", "result": 2.5, "unit": "fold"},
      {"measurement": "Fold increase in mean subject satisfaction score (Face-Q)", "setting": "[1]; low dose", "result": 2.4, "unit": "fold"},
      {"measurement": "Severity of edema and induration compared to placebo", "setting": "[2]; high dose group, particularly in the first 24 hours following injection", "result": "higher severity"},
      {"measurement": "Safety and tolerability", "setting": "[2]; low and high doses (averaged doses of 80 mg and 158.5 mg), no clinically significant changes in vital signs", "result": "safe and well tolerated"},
      {"measurement": "Subjects demonstrating improvement in submental fat (Physician Impression scale)", "setting": "[3]", "result": "all but one of the 18"},
      {"measurement": "Submental fat volume reduction (MRI)", "setting": "[4]; high dose (Cohort 2, 5 mg/injection, up to 240 mg), P<0.05 vs the placebo group", "result": "-22.2% ± 14.9"},
      {"measurement": "Submental fat volume reduction (MRI)", "setting": "[4]; low dose (Cohort 1, 2.5 mg/injection, up to 120 mg), P=0.55 vs the placebo group, NS", "result": "-10.6% ± 14.5"}
    ]}
  ]
}
